Measurements: PMC12279052 (RSC Advances, 2025)
Values after ≈ are worked out from the molar mass of the structure shown.

What was measured:
Type in all cases: cell-based
[1] = tested on: human lung cancer cell line A549; test: Cell toxicity assay, MTT; conditions: Homo sapiens, A549, 24 h
[2] = tested on: human hepatocellular carcinoma cell line HepG2; test: Cell toxicity assay, MTT; conditions: Homo sapiens, HepG2, 24 h
[3] = tested on: Candida albicans ATCC10231; test: Antimicrobial activity, broth dilution MIC; conditions: Candida albicans, ATCC10231
[4] = tested on: Escherichia coli ATCC25922; test: Antibacterial activity, broth dilution MIC; conditions: Escherichia coli, ATCC25922
[5] = tested on: Cutibacterium acnes ATCC6919; test: Antibacterial activity, broth dilution MIC; conditions: Cutibacterium acnes, ATCC6919

O=C1CCC[C@@H]2[C@H]3CCCN4CCC[C@@H](CN12)[C@@H]34 [Matrine, reference compound]
IC50 [1]: 11.8 mM | IC50 [2]: 4.27 mM | MIC [3]: 25.2 mM (≈ 6.26 mg/mL) | MIC [4]: 50.3 mM (≈ 12.5 mg/mL) | MIC [5]: 50.3 mM (≈ 12.5 mg/mL)
